According to paper PMC9578396, “Intrinsic Antibacterial Activity of Xeruborbactam In Vitro: Assessing Spectrum and Mode of Action” (Antimicrobial Agents and Chemotherapy, 2022):
Where two headings read alike, the source gives them in different places.

Tests used:
Format in all cases: cell-based
Escherichia coli = test: Broth microdilution MIC (CLSI), Escherichia coli; settings: Escherichia coli
Excerpt: (§1) (i) Panels of engineered bacterial strains containing various combinations of porin and efflux mutations were used. The construction of all the strains used in the study is described in detail in references, [44], and [45]. (ii) KPC-producing clinical isolates and their derivatives that lost KPC plasmids were used also. These strains and their origins are described in the Table S2. (iii) Finally, KPC-producing clinical isolates enriched in strains with porin mutations were used. The mutations identified include various deletions, insertions, nonsense mutations, and decreased expression. Most of the isolates were obtained from JMI Laboratories or International Health Management Associates (IHMA); they were collected in the course of global surveillance studies.
(§2) Bacterial isolates were subjected to broth microdilution susceptibility testing, performed according to Clinical and Laboratory Standards Institute (CLSI) methods ([46]), using panels prepared in-house. […] Xeruborbactam was synthesized at Qpex Biopharma, San Diego, CA. Avibactam was purchased from eNovation Chemicals LLC, Bridgewater, NJ, USA; zidebactam was from MedKoo Biosciences, Inc., Morrisville, NC, and nacubactam was from Advanced ChemBlocks, Hayward, CA. Durlobactam was synthesized at Acme Bioscience, Palo Alto, CA, USA.

Acinetobacter baumannii = test: Broth microdilution MIC (CLSI), Acinetobacter baumannii; settings: Acinetobacter baumannii
Excerpt: as §1, §2

Klebsiella pneumoniae = test: microbe, parasite or virus in culture; settings: Klebsiella pneumoniae
Excerpt: as §1, §2

Pseudomonas aeruginosa = test: Broth microdilution MIC (CLSI), Pseudomonas aeruginosa; settings: Pseudomonas aeruginosa
Excerpt: as §1, §2

NCCONC(=O)[C@@H]1CC[C@@H]2CN1C(=O)N2OS(=O)(=O)O [Nacubactam]
MIC (Escherichia coli; strain ECM5497, wild type, read-out: MIC): 4 µg/mL
MIC (Escherichia coli; strain ECM6001, ΔacrB): 4 µg/mL
MIC (Escherichia coli; strain ECM6502, marR (AcrAB overexpression)): 2 µg/mL
MIC (Acinetobacter baumannii; strain AB1007, wild type, read-out: MIC): > 256 µg/mL
MIC (Acinetobacter baumannii; strain ACM1013, ΔadeIJK): > 256 µg/mL
MIC (Acinetobacter baumannii; strain ACM1014, ΔadeABC): > 256 µg/mL
MIC (Acinetobacter baumannii; strain ACM1015, ΔadeIJK ΔadeABC): > 256 µg/mL
MIC (Acinetobacter baumannii; strain ACM1027, adeN (AdeIJK overexpression)): > 256 µg/mL
MIC (Acinetobacter baumannii; strain ACM1030, adeS (AdeABC overexpression)): > 256 µg/mL
MIC (Klebsiella pneumoniae; strain KPM1026a, wild type, read-out: MIC): 8 µg/mL
MIC (Klebsiella pneumoniae; strain KPM1027, ramR, read-out: MIC): 4 µg/mL
MIC (Klebsiella pneumoniae; strain KPM1171, ramR ompK36_1171, read-out: MIC): > 64 µg/mL
MIC (Klebsiella pneumoniae; strain KPM2040, ompK36_2040, read-out: MIC): > 64 µg/mL
MIC (Klebsiella pneumoniae; strain KPM2600, ΔompK35): 8 µg/mL
MIC (Klebsiella pneumoniae; strain KPM2613, ΔompK35 ompK36_2040): > 64 µg/mL
MIC (Klebsiella pneumoniae; strain KPM2696, ΔacrB): 2 µg/mL
MIC (Pseudomonas aeruginosa; strain PAM1020, wild type, read-out: MIC): 128 µg/mL
MIC (Pseudomonas aeruginosa; strain PAM1032, nalB (MexAB-OprM overexpression)): 128 µg/mL
MIC (Pseudomonas aeruginosa; strain PAM1033, nfxB (MexCD-OprJ overexpression)): 32 µg/mL
MIC (Pseudomonas aeruginosa; strain PAM1034, nfxC (MexEF-OprN overexpression)): 128 µg/mL
MIC (Pseudomonas aeruginosa; strain PAM1106, mexA::Tet): 128 µg/mL
MIC (Pseudomonas aeruginosa; strain PAM1154, oprM::Hg): 128 µg/mL
